Laboratory results taken from US12180193B2, “Accelerating fibrosarcoma protein degrading compounds and associated methods of use” (Arvinas Operations, Inc., priority 2020, dated 2024).

What was measured:
[1] = target: T1, BRAF V600E (Homo sapiens, UniProt P15056, V600E); assay: Cellular assay of target protein degradation, T-Rex 293 cells stably transfected with HA-BRAF_V600E (HA immunofluorescence, high content imaging); format: cell-based; conditions: T-Rex 293 HA-BRAF V600E; for DC50: half maximal degradation, read-out: BRaf V600E DC50; for Dmax: maximum degradation observed
T1 construct: expressed in transfected cells
T1 sequence (P15056 whole entry V600E): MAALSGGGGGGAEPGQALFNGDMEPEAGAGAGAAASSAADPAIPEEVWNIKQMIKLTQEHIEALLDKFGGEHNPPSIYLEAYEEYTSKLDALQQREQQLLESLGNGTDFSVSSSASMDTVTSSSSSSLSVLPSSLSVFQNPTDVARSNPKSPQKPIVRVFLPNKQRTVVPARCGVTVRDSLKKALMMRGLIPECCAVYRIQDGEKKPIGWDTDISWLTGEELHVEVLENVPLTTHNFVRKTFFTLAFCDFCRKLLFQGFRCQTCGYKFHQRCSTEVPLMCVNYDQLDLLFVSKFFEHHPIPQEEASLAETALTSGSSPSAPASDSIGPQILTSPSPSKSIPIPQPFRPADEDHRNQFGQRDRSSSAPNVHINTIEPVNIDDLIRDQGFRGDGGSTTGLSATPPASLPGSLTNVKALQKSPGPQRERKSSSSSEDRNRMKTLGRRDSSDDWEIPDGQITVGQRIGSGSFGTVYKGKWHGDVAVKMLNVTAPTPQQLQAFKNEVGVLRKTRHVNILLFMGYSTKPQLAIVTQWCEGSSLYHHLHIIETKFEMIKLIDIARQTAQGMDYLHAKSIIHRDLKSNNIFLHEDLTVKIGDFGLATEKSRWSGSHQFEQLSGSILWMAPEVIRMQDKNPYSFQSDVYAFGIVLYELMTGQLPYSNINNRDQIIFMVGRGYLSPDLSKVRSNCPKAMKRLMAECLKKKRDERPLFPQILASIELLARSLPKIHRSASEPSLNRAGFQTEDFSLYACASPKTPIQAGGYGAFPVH
How it was run: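 Read-out is anti-HA immunofluorescence quantified by high-content imaging, giving half-maximal degradation concentration (DC50) and maximum degradation (Dmax, percent of control). Cells expressed the construct under 1 ng/mL doxycycline and received compound (1 μM to 0.1 nM final, 0.1% DMSO) for 24 h at 37 °C.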

[2] = target: T2, BRAF G466V (Homo sapiens, UniProt P15056, G466V); assay: Cellular assay of target protein degradation, T-Rex 293 cells stably transfected with HA-BRAF G466V (HA immunofluorescence, high content imaging); format: cell-based; conditions: T-Rex 293 HA-BRAF G466V; for DC50: half maximal degradation, read-out: BRaf G466V DC50; for Dmax: maximum degradation observed
T2 construct: expressed in transfected cells
T2 sequence (P15056 whole entry G466V): as the sequence (P15056 whole entry V600E) above, with G466V, E600V counted along it
How it was run: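 First, stably transfected T-Rex 293 cells were plated with 0.75 ng/mL doxycycline and grown for 24 hours. Next, compound (final 30 nM to 3 pM, 0.1% DMSO) was added for another 24 hours at 37° C. Finally, cells were fixed, stained for HA and imaged.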

`O=C1CC[C@H](N2Cc3cc(N4CC(CN5C[C@@H]6CN(c7ccc(-c8cnc9[nH]cc(C(=O)c%10c(F)ccc(NS(=O)(=O)N%11CC[C@@H](F)C%11)c%10F)c9c8)cc7)C[C@@H]6C5)C4)ccc3C2=O)C(=O)N1` [Compound 85, (3R)-N-[3-(5-{4-[(3aR,6aS)-5-[(1-{2-[(3S)-2,6-dioxopiperidin-3-yl]-1-oxo-2,3-dihydro-1H-isoindol-5-yl}azetidin-3-yl)methyl]-octahydropyrrolo[3,4-c]pyrrol-2-yl]phenyl}-1H-pyrrolo[2,3-b]pyridine-3-carbonyl)-2,4-difluorophenyl]-3-fluoropyrrolidine-1-sulfonamide] was tested, and the DC50 [1] was < 5 nM, the Dmax [1] was 35 to 70% and the DC50 [2] was 1 to 10 nM. The Dmax [2] was > 70%.
A DC50 [1] of 5 to 50 nM, a Dmax [1] of 35 to 70% and a DC50 [2] of 1 to 10 nM were found for `O=C1CC[C@@H](N2Cc3cc(N4CC(CN5C[C@@H]6CN(c7ccc(-c8cnc9[nH]cc(C(=O)c%10c(F)ccc(NS(=O)(=O)N%11CC[C@@H](F)C%11)c%10F)c9c8)cc7)C[C@@H]6C5)C4)ccc3C2=O)C(=O)N1` [Compound 86, (3R)-N-[3-(5-{4-[(3aR,6aS)-5-[(1-{2-[(3R)-2,6-dioxopiperidin-3-yl]-1-oxo-2,3-dihydro-1H-isoindol-5-yl}azetidin-3-yl)methyl]-octahydropyrrolo[3,4-c]pyrrol-2-yl]phenyl}-1H-pyrrolo[2,3-b]pyridine-3-carbonyl)-2,4-difluorophenyl]-3-fluoropyrrolidine-1-sulfonamide] in this work. For the same compound, the Dmax [2] was > 70%.
In the case of `O=C1CC[C@H](N2Cc3cc(C4CCN(CC5CCN(c6ccc(-c7cnc8[nH]cc(C(=O)c9c(F)ccc(NS(=O)(=O)N%10CC[C@@H](F)C%10)c9F)c8c7)cc6F)CC5)CC4)ccc3C2=O)C(=O)N1` [Compound 87, (3R)-N-{3-[5-(4-{4-[(4-{2-[(3S)-2,6-dioxopiperidin-3-yl]-1-oxo-2,3-dihydro-1H-isoindol-5-yl}piperidin-1-yl)methyl]piperidin-1-yl}-3-fluorophenyl)-1H-pyrrolo[2,3-b]pyridine-3-carbonyl]-2,4-difluorophenyl}-3-fluoropyrrolidine-1-sulfonamide], the DC50 [1] is reported as < 5 nM, the Dmax [1] is reported as 35 to 70% and the DC50 [2] is reported as < 1 nM. For the same compound, the Dmax [2] was > 70%.
`O=C1CC[C@@H](N2Cc3cc(C4CCN(CC5CCN(c6ccc(-c7cnc8[nH]cc(C(=O)c9c(F)ccc(NS(=O)(=O)N%10CC[C@@H](F)C%10)c9F)c8c7)cc6F)CC5)CC4)ccc3C2=O)C(=O)N1` [Compound 88, (3R)-N-{3-[5-(4-{4-[(4-{2-[(3R)-2,6-dioxopiperidin-3-yl]-1-oxo-2,3-dihydro-1H-isoindol-5-yl}piperidin-1-yl)methyl]piperidin-1-yl}-3-fluorophenyl)-1H-pyrrolo[2,3-b]pyridine-3-carbonyl]-2,4-difluorophenyl}-3-fluoropyrrolidine-1-sulfonamide] was tested, and the DC50 [1] was < 5 nM, the Dmax [1] was 35 to 70% and the DC50 [2] was < 1 nM. For the same compound, the Dmax [2] was > 70%.
In the case of `O=C1CCC(N2Cc3cc(OCCN4CC5(C4)CN(c4ccc(-c6cnc7[nH]cc(C(=O)c8c(F)ccc(NS(=O)(=O)N9CC[C@@H](F)C9)c8F)c7c6)cc4)C5)ccc3C2=O)C(=O)N1` (stereo partly drawn) [Compound 89, (3R)-N-[3-(5-{4-[6-(2-{[2-(2,6-dioxopiperidin-3-yl)-1-oxo-2,3-dihydro-1H-isoindol-5-yl]oxy}ethyl)-2,6-diazaspiro[3.3]heptan-2-yl]phenyl}-1H-pyrrolo[2,3-b]pyridine-3-carbonyl)-2,4-difluorophenyl]-3-fluoropyrrolidine-1-sulfonamide], the DC50 [1] is reported as < 5 nM, the Dmax [1] is reported as 35 to 70% and the DC50 [2] is reported as < 1 nM. The Dmax [2] was 35 to 70%.
A DC50 [1] of 5 to 50 nM, a Dmax [1] of 35 to 70% and a DC50 [2] of 1 to 10 nM were found for `O=C1CCC(N2Cc3cc(N4CCN(C[C@H](O)Cc5ccc(-c6cnc7[nH]cc(C(=O)c8c(F)ccc(NS(=O)(=O)N9CC[C@@H](F)C9)c8F)c7c6)cc5)CC4)ccc3C2=O)C(=O)N1` (stereo partly drawn) [Compound 90, (3R)—N-[3-[5-[4-[(2R)-3-[4-[2-(2,6-dioxo-3-piperidyl)-1-oxo-isoindolin-5-yl]piperazin-1-yl]-2-hydroxy-propyl]phenyl]-1H-pyrrolo[2,3-b]pyridine-3-carbonyl]-2,4-difluoro-phenyl]-3-fluoro-pyrrolidine-1-sulfonamide] in this work. The Dmax [2] was 35 to 70%.
